According to patent US11780826B2 (Amgen Inc., priority 2017, dated 2023):

Tested on: Bovine cardiac myofibrils
Experiment: In vitro model of dose-dependent myofibril ATPase modulation (AC1.4, pyruvate kinase/lactate dehydrogenase-coupled ATPase assay at pCa25)
Format: biochemical
Details: concentration at which ATPase activity was 1.4-fold higher than the bottom of the dose curve, mean of a minimum of two independent tests
Method in brief: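 ATP turnover tracked as NADH absorbance loss at 340 nm, coupled via pyruvate kinase/lactate dehydrogenase, with 1 mM ATP, 2 mM MgCl2 and 12 mM K-PIPES at pH 6.80 (22° C) under EGTA/CaCl2 calcium buffering. Substrate was detergent-treated bovine cardiac myofibrils; 4-parameter curve fit, AC1.4 averaged over at least two runs.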

Compound | AC1.4 [µM]
CS(=O)(=O)c1ccc(C(=O)N2[C@@H](C(=O)N[C@@H](c3ccc(C(F)(F)F)cc3F)C3CC3)C[C@H]3C[C@H]32)cn1 [Example 490, (1R,3R,5R)-N-((R)-cyclopropyl(2-fluoro-4-(trifluoromethyl)phenyl)methyl)-2-((6-(methylsulfonyl)-3-pyridinyl)carbonyl)-2-azabicyclo[3.1.0]hexane-3-carboxamide] | 2.1625
C#CC1(O)CN(S(=O)(=O)N2CCC[C@H](C(=O)N3CCC[C@@H]3C(=O)NCc3ccc(C(F)(F)F)cc3F)C2)C1 [Example 196, 1 (((3S)-1-((3-ethynyl-3-hydroxy-1-azetidinyl)sulfonyl)-3-piperidinyl)carbonyl)-N-(2-fluoro-4-(trifluoromethyl)benzyl)-D-prolinamide] | 0.3906
O=C(N[C@@H](c1ccc(C(F)(F)F)cc1F)C1CC1)[C@H]1C[C@H]2C[C@H]2N1C(=O)c1ccnc(C(F)F)c1 [Example 605, (1R,3R,5R)-N-((R)-cyclopropyl(2-fluoro-4-(trifluoromethyl)phenyl)methyl)-2-((2-(difluoromethyl)-4-pyridinyl)carbonyl)-2-azabicyclo[3.1.0]hexane-3-carboxamide] | 3.685
O=C(N[C@@H](c1cc(F)c(Cl)cc1F)C1COC1)[C@H]1C[C@H]2C[C@H]2N1C(=O)c1cccc(S(=O)(=O)CCO)c1 [Example 94, (1R,3R,5R)-N-((R)-(4-chloro-2,5-difluorophenyl)(3-oxetanyl)methyl)-2-(3-((2-hydroxyethyl)sulfonyl)benzoyl)-2-azabicyclo[3.1.0]hexane-3-carboxamide] | 0.1425
CCS(=O)(=O)c1cccc(C(=O)N2[C@@H](C(=O)N[C@@H](c3ccc(C(F)(F)F)cc3F)C3COC3)C[C@H]3C[C@H]32)c1 [Example 128, (1R,3R,5R)-2-(3-(ethylsulfonyl)benzoyl)-N-((R)-(2-fluoro-4-(trifluoromethyl)phenyl)(3-oxetanyl)methyl)-2-azabicyclo[3.1.0]hexane-3-carboxamide] | 0.2103
N#CC1CN(S(=O)(=O)c2cc(C(=O)N3CCC[C@@H]3C(=O)NCc3ccc(C(F)(F)F)cc3F)ccn2)C1 [Example 142, 1-((2-((3-cyano-1-azetidinyl)sulfonyl)-4-pyridinyl)carbonyl)-N-(2-fluoro-4-(trifluoromethyl)benzyl)-D-prolinamide] | 0.2421
N#CC1CN(S(=O)(=O)N2CCC[C@H](C(=O)N3C[C@@H]4C[C@@H]4[C@@H]3C(=O)NCc3ccc(C(F)(F)F)cc3)C2)C1 [Example 177, (1S,2R,5R)-3-(((3S)-1-((3-cyano-1-azetidinyl)sulfonyl)-3-piperidinyl)carbonyl)-N-(4-(trifluoromethyl)benzyl)-3-azabicyclo[3.1.0]hexane-2-carboxamide] | 0.3113
Cc1noc(C2CN(S(=O)(=O)N3CCC[C@H](C(=O)N4CCC[C@@H]4C(=O)NCc4ccc(C(F)(F)F)cc4)C3)C2)n1 [Example 688, 1-(((3S)-1-((3-(3-methyl-1,2,4-oxadiazol-5-yl)-1-azetidinyl)sulfonyl)-3-piperidinyl)carbonyl)-N-(4-(trifluoromethyl)benzyl)-D-prolinamide] | 5.317
O=C(N[C@@H](c1cc(F)c(Cl)cc1F)C1COC1)[C@H]1C[C@H](O)CN1C(=O)c1ccnc(C(F)(F)F)c1 [Example 723, (4S)-N-((R)-(4-chloro-2,5-difluorophenyl)(3-oxetanyl)methyl)-4-hydroxy-1-((2-(trifluoromethyl)-4-pyridinyl)carbonyl)-D-prolinamide] | 6.4425
O=C(N[C@@H](c1cc(F)c(Cl)cc1F)C1CC1)[C@H]1C[C@H]2C[C@H]2N1C(=O)c1ccnc(S(=O)(=O)C2CC2)c1 [Example 295, (1R,3R,5R)-N-((R)-(4-chloro-2,5-difluorophenyl)(cyclopropyl)methyl)-2-((2-(cyclopropylsulfonyl)-4-pyridinyl)carbonyl)-2-azabicyclo[3.1.0]hexane-3-carboxamide] | 0.7671
N#CC1CN(S(=O)(=O)N2CCC[C@H](C(=O)N3CCC[C@@H]3C(=O)NCc3ccccc3C(F)(F)F)C2)C1 [Example 746, 1-(((3S)-1-((3-cyano-1-azetidinyl)sulfonyl)-3-piperidinyl)carbonyl)-N-(2-(trifluoromethyl)benzyl)-D-prolinamide] | 7.268
CC[C@H](NC(=O)[C@H]1CCCN1C(=O)[C@H]1CCCN(S(=O)(=O)N2CC(C#N)C2)C1)c1cc(F)cc(F)c1 [Example 468, 1-(((3S)-1-((3-cyano-1-azetidinyl)sulfonyl)-3-piperidinyl)carbonyl)-N-((1S)-1-(3,5-difluorophenyl)propyl)-D-prolinamide] | 1.9855
N#CC1CN(S(=O)(=O)N2CCC[C@H](C(=O)N3CCC[C@@H]3C(=O)N[C@@H](c3cc(F)c(Cl)cc3F)C3CNC3)C2)C1 (single isomer, unassigned) [Example 558] | 2.928
CS(=O)(=O)c1cccc(C(=O)N2CCC[C@@H]2C(=O)N[C@@H](c2ccc(C(F)(F)F)cc2F)C2COC2)c1 [Example 232, N-((R)-(2-fluoro-4-(trifluoromethyl)phenyl)(3-oxetanyl)methyl)-1-(3-(methylsulfonyl)benzoyl)-D-prolinamide] | 0.5201
CS(=O)(=O)c1ccc(NCCO)c(C(=O)N2[C@@H](C(=O)N[C@@H](c3ccc(C(F)(F)F)cc3F)C3CC3)C[C@H]3C[C@H]32)c1 [Example 118, (1R,3R,5R)-N-((R)-cyclopropyl(2-fluoro-4-(trifluoromethyl)phenyl)methyl)-2-(2-((2-hydroxyethyl)amino)-5-(methylsulfonyl)benzoyl)-2-azabicyclo[3.1.0]hexane-3-carboxamide] | 0.1795
N#CC1CN(S(=O)(=O)c2cccc(C(=O)N3CCC[C@@H]3C(=O)NC3CC(C(F)(F)F)C3)c2)C1 (stereo partly drawn) [Example 759, 1-((3-((3-cyano-1-azetidinyl)sulfonyl)phenyl)carbonyl)-N-(cis-3-(trifluoromethyl)cyclobutyl)-D-prolinamide,1-((3-((3-cyano-1-azetidinyl)sulfonyl)phenyl)carbonyl)-N-(trans-3-(trifluoromethyl)cyclobutyl)-D-prolinamide] | 7.6347
NC(=O)C1(c2cccc(C(=O)N3[C@@H](C(=O)N[C@@H](c4cc(F)c(Cl)cc4F)C4COC4)C[C@H]4C[C@H]43)c2)CC1 [Example 184, (1R,3R,5R)-2-(3-(1-carbamoylcyclopropyl)benzoyl)-N-((R)-(4-chloro-2,5-difluorophenyl)(3-oxetanyl)methyl)-2-azabicyclo[3.1.0]hexane-3-carboxamide] | 0.3365
O=C(N[C@@H](c1ccc(C(F)(F)F)c(F)c1)C1CC1)[C@H]1C[C@H]2C[C@H]2N1C(=O)c1ccnc(S(=O)(=O)C2CC2)c1 [Example 686, (1R,3R,5R)-N-((R)-cyclopropyl(3-fluoro-4-(trifluoromethyl)phenyl)methyl)-2-((2-(cyclopropylsulfonyl)-4-pyridinyl)carbonyl)-2-azabicyclo[3.1.0]hexane-3-carboxamide] | 5.284
N#CC1CN(S(=O)(=O)N2CCC[C@H](C(=O)N3CCC[C@@H]3C(=O)N[C@@H](c3ccc(S(F)(F)(F)(F)F)cc3)C3CC3)C2)C1 [Example 117, 1-(((3S)-1-((3-cyano-1-azetidinyl)sulfonyl)-3-piperidinyl)carbonyl)-N-((R)-cyclopropyl(4-(pentafluoro-lambda~6~-sulfanyl)phenyl)methyl)-D-prolinamide] | 0.179
N#CC1CN(S(=O)(=O)N2CCC[C@H](C(=O)N3CCC[C@@H]3C(=O)NCc3c(F)cccc3Cl)C2)C1 [Example 719, N-(2-chloro-6-fluorobenzyl)-1-(((3S)-1-((3-cyano-1-azetidinyl)sulfonyl)-3-piperidinyl)carbonyl)-D-prolinamide] | 6.2628
O=C(NCc1ccc(C(F)(F)F)cc1)[C@H]1CCCN1C(=O)[C@H]1CCCN(S(=O)(=O)N2CC(F)(F)C2)C1 [Example 703, 1-(((3S)-1-((3,3-difluoro-1-azetidinyl)sulfonyl)-3-piperidinyl)carbonyl)-N-(4-(trifluoromethyl)benzyl)-D-prolinamide] | 5.723
N#CC1CN(S(=O)(=O)c2cccc(C(=O)N3CCC[C@@H]3C(=O)NCc3ccc(Cl)c(F)c3)c2)C1 [Example 64, N-(4-chloro-3-fluorobenzyl)-1-((3-((3-cyano-1-azetidinyl)sulfonyl)phenyl)carbonyl)-D-prolinamide] | 0.0744
Cc1ccc(CNC(=O)[C@H]2CCCN2C(=O)c2cccc(S(=O)(=O)N3CC(C#N)C3)c2)c(F)c1 [Example 76, 1-((3-((3-cyano-1-azetidinyl)sulfonyl)phenyl)carbonyl)-N-(2-fluoro-4-methylbenzyl)-D-prolinamide] | 0.1008
O=C(NCc1ccc(C(F)(F)F)cc1)[C@H]1CCCN1C(=O)[C@H]1CCCN(S(=O)(=O)N2CC(C3CCOC3)C2)C1 (stereo partly drawn) [Example 739, (2R)-1-((3S)-1-((3-(tetrahydrofuran-3-yl)azetidin-l-yl)sulfonyl)piperidine-3-carbonyl)-N-(4-(trifluoromethyl)benzyl)pyrrolidine-2-carboxamide] | 7.1325
CS(=O)(=O)c1ccnc(C(=O)N2[C@@H](C(=O)N[C@@H](c3ccc(C(F)(F)F)cc3F)C3CC3)C[C@H]3C[C@H]32)c1 [Example 444, (1R,3R,5R)-N-((R)-cyclopropyl(2-fluoro-4-(trifluoromethyl)phenyl)methyl)-2-(4-(methylsulfonyl)picolinoyl)-2-azabicyclo[3.1.0]hexane-3-carboxamide] | 1.547
CC(C)Nc1ccc(S(C)(=O)=O)cc1C(=O)N1CCC[C@@H]1C(=O)N[C@@H](c1ccc(C(F)(F)F)cc1F)C1CC1 [Example 81, N-((R)-cyclopropyl(2-fluoro-4-(trifluoromethyl)phenyl)methyl)-1-(5-(methylsulfonyl)-2-(2-propanylamino)benzoyl)-D-prolinamide] | 0.1048
